Source: PMC9322122, “Development of (4-Phenylamino)quinazoline Alkylthiourea Derivatives as Novel NF-κB Inhibitors” (Pharmaceuticals, 2022)
Entries after “also recorded” stand apart in the source; their conditions may differ.

What was measured:
dTHP−1 cells = test: Cell viability of dTHP-1 cells with or without LPS; format: cell-based, human; details: in % (unit assumed)
Description: (§1) The HEK-293 (ATCC Cat# CRL-1573, RRID:CVCL_0045) and human monocytic THP−1 cells (ATCC Cat# TIB-202, RRID:CVCL_0006) were, respectively, cultured in DMEM and RPMI 1640 media supplemented with 10% fetal bovine serum, 2 mM L-glutamine, and 1× Antibiotic-Antimycotic at 37 °C in a humidified incubator with 5% CO2. THP−1 cells were differentiated by 100 nM phorbol-12-myristate-13-acetate (PMA) for 4 h and then rested for 44 h as dTHP−1 cells.
(§2) Cells were incubated with the WST-1 reagent (Thermo Fisher Scientific, Waltham, MA, USA) at 37 °C for 2 h. The cell viability was determined by spectrophotometer at 450 nm.
(§3) The dTHP−1 cells were treated with indicated compounds for 3 h and then activated with or without 100 ng/mL lipopolysaccharide (LPS; E. coli 0111:B4) for another 24 h. The levels of human IL-6 and TNFα in supernatants were measured by DuoSet® ELISA Development System (R&D systems, Minneapolis, MN, USA) according to the manufacturer’s protocol.

phospho-NF-κB p65 (S536) = test: Western blot phospho-NF-κB p65 (S536) in dTHP-1 cells; format: cell-based, human; details: 7.5 µM; LPS-stimulated dTHP-1 cells
Description: Cells were lysed in the commercial RIPA Buffer (Thermo Fisher Scientific, Waltham, MA, USA) and then centrifuged at 14,000× g for 20 min. […] Antibodies used in this study were phospho-NF-κB p65 (S468; catalog no. 3039), phospho-NF-κB p65 (S536; catalog no. 3033), phospho-IKKα/β (catalog no. 2697), and IκB (catalog no. 9242) from Cell Signaling Technology (Beverly, MA, USA); GAPDH from ABclonal (catalog no. A10868; Woburn, MA, USA). The labeled signals were determined using an enhanced chemiluminescence system (UVP, Upland, CA, USA). The experiments were performed at least two times in triplicate, providing basically the same results.
The dTHP−1 cells were incubated with DMSO (0.1%), 19 (7.5 µM), or CAPE (10 µM) in medium for 3 h and then stimulated with or without LPS (0.1 µg/mL) for another 30 min. (A) The levels of phospho-NF-κB p65 (S536), phospho-IKKα/β, IκB, and GAPDH were determined by Western blot. The normalized (B) phospho-NF-κB p65 (S536), (C) phospho-IKKα/β, and (D) IκB levels were quantified. All data are expressed as mean ± SEM (n = 3); * p < 0.05 compared with the DMSO + LPS group.

[1] = system: protein kinases known to regulate the NF-κB pathway; test: Kinase screening panel as a whole; format: biochemical; details: Table S1
Source text: While the EGFR kinase inhibitory activity was largely abolished here, it could not be excluded that our modifications may have generated affinity to another kinase. The most important kinases to be checked were those reported to phosphorylate p65-Ser468 in different cell types, comprising GSK3β, IKKβ, and IKKɛ [45, 46, 47]. In addition, all the kinases described in the literature to control the canonical and non-canonical pathway of NF-κB activation were also included in the screening panel. […] Instead, the inhibitory effect of 19 on the Ser468 phosphorylation might be indirect, e.g., through interference with proteins complexes regulating the Ser468 kinase activity.
Tabl e S1. Selectivity profiling of compound 19 ag ainst the protein kinases known to regulate the NF-kB pathway ki nase % Inhibiti on at 2 µMa […]
aScreenings were perf or med as a servi ce at Thermo Fisher Scientific at an ATP concentrat ion of 100 μM. n.i., no inhi biti on. Data represent mean values of duplicat es that differed by less t han 7%.

Recombinant EGFR kinase = Recombinant EGFR kinase (Homo sapiens, UniProt P00533); test: Recombinant EGFR kinase activity; format: biochemical; details: read-out: Recombinant EGFR Kinase Activity (%inh at 150 nM)
NF-κB = NF-κB luciferase reporter assay; format: cell-based; details: Homo sapiens, NF-κB-luciferase-transfected HEK293 cells, TNFα 50 ng/mL
Description: NF-κB Luciferase Reporter Vector was purchased from Signosis (Santa Clara, CA, USA) and transfected into HEK-293 cells using FuGENE HD (Promega, Fitchburg, MA, USA) following the manufacturer’s protocol. The transfected cells were incubated in serum-free DMEM for 16 h and then treated with DMSO or indicated compounds. After 3 h, cells were treated with or without 50 ng/mL of Recombinant Human TNFα Protein (R&D systems, Minneapolis, MN, USA) for another 3 h. The protein lysates were analyzed using Steady-Glo® Luciferase Assay System (Promega, Fitchburg, MA, USA) and TECAN Infinite 200 pro (Männedorf, Switzerland).

NF-κB p65 = test: Nuclear translocation of NF-κB p65, immunofluorescent staining; format: cell-based, human; details: 7.5 µM, 3 h, then LPS 0.1 µg/mL 30 min; dTHP-1 cells
Description: Cells were fixed with 4% formaldehyde and then incubated with 5% goat serum. The intracellular location of NF-κB p65 was determined using primary antibodies against NF-κB p65 (Cell Signaling Technology, Beverly, MA, USA) and FITC-conjugated secondary antibody. Nuclei were counterstained with Hoechst (1 µg/mL). Images were obtained by fluorescent microscopy (OLYMPUS IX 81; Olympus, Tokyo, Japan).
The dTHP−1 cells were incubated with DMSO (0.1%), 19 (7.5 µM), or CAPE (10 µM) in medium for 3 h and then stimulated with or without LPS (0.1 µg/mL) for another 30 min. (A) Nuclear translocation of NF-κB p65 (green) was determined by immunofluorescent microscopy. Hoechst (blue) was used for nuclei staining. (B) The nuclear NF-κB p65-positive cells were quantified. (C) The levels of phospho-NF-κB p65 (S468), IκB, and GAPDH were determined by Western blot. (D) The normalized phospho-NF-κB p65 (S468) and IκB levels were quantified. All data are expressed as mean ± SEM (n = 3); ** p < 0.01 and *** p < 0.001 compared with the DMSO + LPS group.

[2] = Cell viability (WST-1), HEK293; format: cell-based; details: human, HEK293 cells, mean ± SEM, n = 3
Description: as §2

IL-6 production = IL-6 production in LPS-activated dTHP-1 cells (ELISA); format: cell-based, human; details: Homo sapiens
Description: as §1, §3

Recombinant EGFR kinase, sequence (P00533 25-1210): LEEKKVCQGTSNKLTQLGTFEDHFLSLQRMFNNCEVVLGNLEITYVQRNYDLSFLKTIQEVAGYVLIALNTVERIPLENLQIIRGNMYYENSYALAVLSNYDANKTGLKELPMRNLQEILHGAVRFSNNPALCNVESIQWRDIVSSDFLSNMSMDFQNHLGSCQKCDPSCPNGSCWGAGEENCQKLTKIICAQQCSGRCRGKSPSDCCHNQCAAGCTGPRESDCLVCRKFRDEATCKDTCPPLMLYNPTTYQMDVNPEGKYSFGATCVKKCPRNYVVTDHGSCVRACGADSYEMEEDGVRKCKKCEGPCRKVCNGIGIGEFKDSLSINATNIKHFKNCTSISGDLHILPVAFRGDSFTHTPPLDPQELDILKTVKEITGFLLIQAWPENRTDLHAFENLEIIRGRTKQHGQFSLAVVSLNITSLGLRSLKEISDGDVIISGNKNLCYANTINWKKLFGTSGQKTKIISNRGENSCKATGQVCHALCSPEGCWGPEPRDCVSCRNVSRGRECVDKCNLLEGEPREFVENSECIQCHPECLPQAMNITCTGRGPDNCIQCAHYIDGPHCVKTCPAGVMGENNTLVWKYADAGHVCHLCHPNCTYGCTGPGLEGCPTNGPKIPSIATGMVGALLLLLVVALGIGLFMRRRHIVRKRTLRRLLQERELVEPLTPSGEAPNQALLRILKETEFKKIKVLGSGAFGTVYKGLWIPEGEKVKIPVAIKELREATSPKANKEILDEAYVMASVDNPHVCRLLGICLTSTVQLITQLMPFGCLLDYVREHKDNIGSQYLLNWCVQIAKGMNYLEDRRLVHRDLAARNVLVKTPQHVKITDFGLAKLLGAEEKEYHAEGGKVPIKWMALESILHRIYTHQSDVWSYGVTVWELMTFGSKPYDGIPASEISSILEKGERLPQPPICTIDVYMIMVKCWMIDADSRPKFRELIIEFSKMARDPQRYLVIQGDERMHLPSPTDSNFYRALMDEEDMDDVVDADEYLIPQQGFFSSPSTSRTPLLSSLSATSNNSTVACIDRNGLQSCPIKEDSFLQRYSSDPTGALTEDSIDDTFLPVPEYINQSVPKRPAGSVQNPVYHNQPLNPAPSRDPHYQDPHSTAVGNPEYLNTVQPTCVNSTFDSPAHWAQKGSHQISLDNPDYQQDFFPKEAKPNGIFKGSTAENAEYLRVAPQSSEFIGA

SMILES: S=C(Nc1ccc2ncnc(Nc3cccc(Cl)c3)c2c1)NC1CCCC1 [Compound 19, 1-(4-((3-Chlorophenyl)amino)quinazolin-6-yl)-3-cyclopentylthiourea]
- Cell viability of dTHP-1 cells, 5 μM, LPS (dTHP−1 cells; 5 μM (so in the source), LPS 100 ng/mL for 24 h): 4.9 ± 0.38
- Cell viability of dTHP-1 cells, 5 μM, without LPS (dTHP−1 cells; 5 μM (so in the source), no LPS): 30.0 ± 1.3
- Cell viability of dTHP-1 cells, 7.5 μM, without LPS (dTHP−1 cells; 7.5 μM, no LPS): 60.3 ± 0.85
- Phosphorylation of p65 at Ser536 (phospho-NF-κB p65 (S536)): not affected
- Inhibition of kinases involved in NF-κB activation (panel) [1]: did not appreciably inhibit any of these kinases
- inhibition at 0.15 µM (Recombinant EGFR kinase): 23%
- inhibition at 10 µM (NF-κB; 10 μM, mean ± SEM, n = 3, read-out: NF-κB Luciferase Activity Inh %): 92.5 ± 0.8%
- IC50 (NF-κB): 2.3 µM
- LPS-induced nuclear translocation of NF-κB p65 (NF-κB p65): inhibits the LPS-induced nuclear translocation of NF-κB p65; also recorded: clearly inhibited the nuclear translocation of NF-κB
- viability at 10 µM [2]: 118 ± 11.4%
- inhibition at 7.5 µM (IL-6 production; 7.5 μM, LPS 100 ng/mL for 24 h, dTHP-1 cells, read-out: IL-6 Production Inh % (7.5 μM)): 92.7 ± 5.5%
- inhibition at 15 µM (IL-6 production; 15 μM, LPS 100 ng/mL for 24 h, dTHP-1 cells, read-out: IL-6 Production Inh % (15 μM)): 98.3 ± 0.28%
- IC50 (IL-6 production; LPS-activated dTHP-1 cells, 24 h): 0.84 ± 0.12 µM
